The source of these data is US6872729B2, “Pyrimidinylbenzimidazole and triazinylbenzimidazole derivatives and agricultural/horticultural fungicides” (Kumiai Chemical Industry Co., Ltd., priority 1998, dated 2005).

The subject of one data set is Erysiphe graminis. Description: Test for preventive effect on wheat powdery mildew. Conditions: wheat (Norin-61-go) seedlings, 500 ppm active ingredient, preventive treatment; diseased area of first leaves 10 days after inoculation with Erysiphe graminis. In kind it is in vivo. The procedure, abridged:
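Wheat seedlings (Norin-61-go), grown 8 days, were sprayed with wettable-powder solutions at 500 ppm active ingredient, air-dried, then inoculated by sprinkling Erysiphe graminis spores. Plants were kept at 20-25° C. Diseased area on first leaves was scored 10 days post-inoculation against a rating standard.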

What is called melting point is the temperature, or range, at which the solid turns liquid. As to `Cc1nc2ccccc2n1-c1nc(Cl)nc(Cl)n1` [Compound I-1066, 1-(4,6-dichloro-[1,3,5]triazin-2-yl)-2-methylbenzimidazole], the melting point was > 300 °C.

Consider `CSc1nc(SC)nc(-n2c(C)nc3ccccc32)n1` [Compound I-1042, 1-(4,6-dimethylthio-[1,3,5]triazin-2-yl)-2-methylbenzimidazole], for which the melting point was 176 to 179 °C.

Regarding `COc1ccc2ncn(-c3nc(OC)cc(OC)n3)c2c1` [Compound I-116], the Biological effectiveness entry in the data set with Erysiphe graminis is listed as “B (Diseased area of less than 25%)”.

Take `COc1cc(OC)nc(-n2c(C(F)(F)F)nc3ccc(C)cc32)n1` [Compound I-307]: in the data set with Erysiphe graminis, the Biological effectiveness result is “A (No diseased area)”.

As to `CCOc1nc(OCC)nc(-n2c(C(F)(F)F)nc3cc(Br)ccc32)n1` [Compound I-546], in the data set with Erysiphe graminis, the Biological effectiveness entry is listed as “A (No diseased area)”.

`CCOc1cc(OCC)nc(-n2c(C)nc3ccc(F)cc32)n1` [Compound I-507]: in the data set on Erysiphe graminis, the Biological effectiveness entry is recorded as “A (No diseased area)”.

For the compound `CCc1cc(C)nc(-n2cnc3ccccc32)n1` [Compound I-1085], the Biological effectiveness entry in the data set on Erysiphe graminis was “A (No diseased area)”.

With `COc1cc(OC)nc(-n2c(SC)nc3cc(Cl)ccc32)n1` [Compound I-388], the Biological effectiveness result with Erysiphe graminis is reported as “A (No diseased area)”.

`CCOc1cc(OCC)nc(-n2cnc3cc(Cl)ccc32)n1` [Compound I-480]: in the data set with Erysiphe graminis, the Biological effectiveness result is recorded as “A (No diseased area)”.

Take `COc1cc(OC)nc(-n2c(C)nc3ccc(Cl)cc32)n1` [Compound I-201]: the Biological effectiveness entry in the data set on Erysiphe graminis is recorded as “A (No diseased area)”.

Consider `CCc1nc2cc(Cl)ccc2n1-c1nc(OC)cc(OC)n1` [Compound I-333], for which, in the data set with Erysiphe graminis, the Biological effectiveness result is “A (No diseased area)”.

For `COc1cc(OC)nc(-n2c(C)nc3ccccc32)n1` [Compound I-6], the Biological effectiveness entry in the data set with Erysiphe graminis is “B (Diseased area of less than 25%)”.

As for `CCOc1ccnc(-n2c(C)nc3cc(C)ccc32)n1` [Compound I-695], the Biological effectiveness entry with Erysiphe graminis is reported as “A (No diseased area)”.

As for `CCCc1ccc2c(c1)nc(C)n2-c1nc(OC)nc(OC)n1` [Compound I-220], the Biological effectiveness entry in the data set on Erysiphe graminis is given as “B (Diseased area of less than 25%)”.

For `COc1cc(OC)nc(-n2cnc3ccc(Cl)cc32)n1` [Compound I-113], the Biological effectiveness entry in the data set with Erysiphe graminis is reported as “B (Diseased area of less than 25%)”.

Regarding `COc1nc(OC)nc(-n2c(C(F)(F)F)nc3cc(C(C)C)ccc32)n1` [Compound I-315], the Biological effectiveness result with Erysiphe graminis is “B (Diseased area of less than 25%)”.

On to `CCc1cc(C)nc(-n2c(C)nc3ccc(Cl)cc32)n1` [Compound I-1090], for which the Biological effectiveness entry with Erysiphe graminis is reported as “B (Diseased area of less than 25%)”.

On to `CCCOc1cc(C)nc(-n2cnc3cc(OC)ccc32)n1` [Compound I-805], for which the Biological effectiveness result in the data set on Erysiphe graminis is “B (Diseased area of less than 25%)”.

For `CSc1nc(C)nc(-n2c(C)nc3cc(C)ccc32)n1` [Compound I-915], the Biological effectiveness result in the data set on Erysiphe graminis is reported as “A (No diseased area)”.

Turning to `COc1nc(-c2ccccc2)nc(-n2c(C(F)(F)F)nc3ccc(C)cc32)n1` [Compound I-1059], the Biological effectiveness entry in the data set with Erysiphe graminis was “A (No diseased area)”.

Turning to `CCc1cc(CC)nc(-n2c(C)nc3cc(Cl)ccc32)n1` [Compound I-1096], in the data set with Erysiphe graminis, the Biological effectiveness result is “A (No diseased area)”.

As for `COc1nc(OC)nc(-n2c(C(C)C)nc3cc(Cl)ccc32)n1` [Compound I-359], in the data set on Erysiphe graminis, the Biological effectiveness result is given as “A (No diseased area)”.

For the compound `Cc1cc(C(F)(F)F)nc(-n2cnc3ccccc32)n1` [Compound I-1082], in the data set on Erysiphe graminis, the Biological effectiveness entry is reported as “B (Diseased area of less than 25%)”.

With `C#CCOc1cc(C)nc(-n2cnc3ccccc32)n1` [Compound I-894], the Biological effectiveness result in the data set with Erysiphe graminis was “B (Diseased area of less than 25%)”.

Regarding `COc1cc(OC)nc(-n2c(Cl)nc3cc(Cl)ccc32)n1` [Compound I-256], the Biological effectiveness result in the data set on Erysiphe graminis is reported as “A (No diseased area)”.

For the compound `CCCc1ccc2c(c1)nc(C(F)(F)F)n2-c1nc(OC)nc(OC)n1` [Compound I-314], in the data set on Erysiphe graminis, the Biological effectiveness result is listed as “A (No diseased area)”.

For `CCOc1cc(C)nc(-n2c(C)nc3ccccc32)n1` [Compound I-769], the Biological effectiveness result in the data set on Erysiphe graminis is “A (No diseased area)”.

Turning to `CCOc1nc(OCC)nc(-n2c(Cl)nc3cc(Cl)ccc32)n1` [Compound I-534], the Biological effectiveness result in the data set with Erysiphe graminis is reported as “A (No diseased area)”.

In the case of `COc1cc(OC)nc(-n2c(C)nc3cc(C(F)(F)F)ccc32)n1` [Compound I-188], in the data set on Erysiphe graminis, the Biological effectiveness entry is on record as “A (No diseased area)”.

For the compound `CCOc1ccnc(-n2c(C(F)(F)F)nc3cc(Cl)ccc32)n1` [Compound I-704], the Biological effectiveness entry in the data set on Erysiphe graminis is “B (Diseased area of less than 25%)”.

For `COc1cc(OC)nc(-n2c(C(F)(F)F)nc3cc(Cl)ccc32)n1` [Compound I-296], in the data set with Erysiphe graminis, the Biological effectiveness result was “A (No diseased area)”.

`CCCc1nc(OC)nc(-n2c(C)nc3cc(C)ccc32)n1` [Compound I-999]: in the data set with Erysiphe graminis, the Biological effectiveness result is “A (No diseased area)”.

`COc1cc(OC)nc(-n2c(C)nc3cc(F)ccc32)n1` [Compound I-183]: the Biological effectiveness result in the data set on Erysiphe graminis was “B (Diseased area of less than 25%)”.

For the compound `CCc1cc(C)nc(-n2cnc3cc(C)ccc32)n1` [Compound I-1086], the Biological effectiveness entry in the data set on Erysiphe graminis was “B (Diseased area of less than 25%)”.

Regarding `CCCc1cc(OC)nc(-n2cnc3ccccc32)n1` [Compound I-958], the Biological effectiveness result in the data set on Erysiphe graminis is “B (Diseased area of less than 25%)”.

As for `CCOc1cc(OCC)nc(-n2cnc3ccccc32)n1` [Compound I-457], the Biological effectiveness result in the data set on Erysiphe graminis is recorded as “B (Diseased area of less than 25%)”.

For `CCOc1nc(OC)nc(-n2c(C)nc3cc(Cl)ccc32)n1` [Compound I-438], in the data set on Erysiphe graminis, the Biological effectiveness result is recorded as “A (No diseased area)”.

Take `CCc1nc2cc(C(F)(F)F)ccc2n1-c1nc(OC)cc(OC)n1` [Compound I-335]: in the data set on Erysiphe graminis, the Biological effectiveness result is “A (No diseased area)”.

Take `COc1nc(OC)nc(-n2c(N)nc3cc(C)ccc32)n1` [Compound I-369]: the Biological effectiveness result in the data set with Erysiphe graminis is “B (Diseased area of less than 25%)”.

As for `CCc1nc2ccccc2n1-c1nc(OC)cc(OC)n1` [Compound I-7], in the data set on Erysiphe graminis, the Biological effectiveness result was “A (No diseased area)”.

With `COc1nc(OC)nc(-n2c(C)nc3c(C)cccc32)n1` [Compound I-212], the Biological effectiveness result in the data set with Erysiphe graminis is listed as “B (Diseased area of less than 25%)”.

For `COc1cc(OC)nc(-n2c(C)nc3ccc(C)cc32)n1` [Compound I-202], in the data set on Erysiphe graminis, the Biological effectiveness result was “B (Diseased area of less than 25%)”.

With `CCOc1cc(OCC)nc(-n2c(Cl)nc3cc(OC)ccc32)n1` [Compound I-531], the Biological effectiveness entry with Erysiphe graminis was “A (No diseased area)”.

With `COc1nc(OC)nc(-n2c(C)nc3cc(F)ccc32)n1` [Compound I-214], the Biological effectiveness result with Erysiphe graminis is given as “A (No diseased area)”.

As for `COc1nc(C)nc(-n2c(C(F)(F)F)nc3cc(C)ccc32)n1` [Compound I-762], the Biological effectiveness entry in the data set with Erysiphe graminis is listed as “A (No diseased area)”.

As for `COc1nc(C2CC2)nc(-n2c(C)nc3cc(C)ccc32)n1` [Compound I-1019], the Biological effectiveness entry in the data set on Erysiphe graminis is on record as “A (No diseased area)”.

On to `CCOc1cc(OCC)nc(-n2c(C)nc3cc(C(F)(F)F)ccc32)n1` [Compound I-502], for which the Biological effectiveness entry in the data set with Erysiphe graminis is on record as “A (No diseased area)”.

In the case of `COc1cc(OC)nc(-n2cnc3ccc(C)cc32)n1` [Compound I-114], in the data set on Erysiphe graminis, the Biological effectiveness entry is “B (Diseased area of less than 25%)”.

With `COc1nc(OC)nc(-n2c(C)nc3cc(C(C)(C)C)ccc32)n1` [Compound I-222], the Biological effectiveness result in the data set with Erysiphe graminis is on record as “B (Diseased area of less than 25%)”.

As for `COc1nc(OC)nc(-n2cnc3cc(Cl)ccc32)n1` [Compound I-130], the Biological effectiveness entry in the data set on Erysiphe graminis is “A (No diseased area)”.

Regarding `COc1ccc2nc(C)n(-c3nc(OC)cc(OC)n3)c2c1` [Compound I-204], in the data set on Erysiphe graminis, the Biological effectiveness entry is given as “A (No diseased area)”.

For the compound `COc1nc(C2CC2)nc(-n2c(C(F)(F)F)nc3cc(C)ccc32)n1` [Compound I-1022], in the data set on Erysiphe graminis, the Biological effectiveness entry is “A (No diseased area)”.

`COc1ccnc(-n2cnc3cc(Cl)ccc32)n1` [Compound I-669]: in the data set with Erysiphe graminis, the Biological effectiveness result is “B (Diseased area of less than 25%)”.

Regarding `COc1cc(OC)nc(-n2c(-c3ccc(Cl)cc3)nc3ccccc32)n1` [Compound I-35], the Biological effectiveness entry in the data set with Erysiphe graminis is on record as “B (Diseased area of less than 25%)”.

As to `COc1cc(OC)nc(-n2c(C(Cl)(Cl)Cl)nc3ccc(C)cc32)n1` [Compound I-404], in the data set on Erysiphe graminis, the Biological effectiveness entry is recorded as “B (Diseased area of less than 25%)”.

Turning to `COc1ccc2c(c1)nc(Cl)n2-c1nc(OC)cc(OC)n1` [Compound I-260], the Biological effectiveness result in the data set on Erysiphe graminis was “A (No diseased area)”.

As for `COc1cc(OC)nc(-n2c(C)nc3cc(OC(F)(F)F)ccc32)n1` [Compound I-192], in the data set with Erysiphe graminis, the Biological effectiveness entry was “B (Diseased area of less than 25%)”.

Turning to `CCOc1cc(OCC)nc(-n2c(C)nc3cc(C)ccc32)n1` [Compound I-501], the Biological effectiveness entry in the data set on Erysiphe graminis was “A (No diseased area)”.

As to `CCc1nc2cc(Cl)ccc2n1-c1nc(OC)nc(OC)n1` [Compound I-346], in the data set on Erysiphe graminis, the Biological effectiveness entry was “A (No diseased area)”.

For `COc1ccc2c(c1)nc(C)n2-c1nc(OC)nc(OC)n1` [Compound I-226], the Biological effectiveness result in the data set on Erysiphe graminis was “A (No diseased area)”.

Consider `COc1nc(OC)nc(-n2c(C(F)(F)F)nc3cc(Cl)ccc32)n1` [Compound I-310], for which, in the data set with Erysiphe graminis, the Biological effectiveness result is “A (No diseased area)”.

As to `CCc1nc2cc(C)ccc2n1-c1nc(OC)cc(OC)n1` [Compound I-334], the Biological effectiveness entry with Erysiphe graminis is “A (No diseased area)”.

Take `COc1nc(C)nc(-n2c(N)nc3cc(C)ccc32)n1` [Compound I-767]: the Biological effectiveness result in the data set with Erysiphe graminis is listed as “B (Diseased area of less than 25%)”.

`COc1cc(OC)nc(-n2c(C(Cl)(Cl)Cl)nc3ccccc32)n1` [Compound I-25]: the Biological effectiveness result with Erysiphe graminis is “A (No diseased area)”.

Turning to `COc1cc(OC)nc(-n2cnc3cc(C)ccc32)n1` [Compound I-85], in the data set on Erysiphe graminis, the Biological effectiveness entry is on record as “A (No diseased area)”.
